Molecular target: T1, catechol-O-methyltransferase (COMT) (Homo sapiens, UniProt P21964)
T1 construct: M51A variant) was expressed in HEK 293F cells
T1 sequence (P21964 52-271 limits assumed): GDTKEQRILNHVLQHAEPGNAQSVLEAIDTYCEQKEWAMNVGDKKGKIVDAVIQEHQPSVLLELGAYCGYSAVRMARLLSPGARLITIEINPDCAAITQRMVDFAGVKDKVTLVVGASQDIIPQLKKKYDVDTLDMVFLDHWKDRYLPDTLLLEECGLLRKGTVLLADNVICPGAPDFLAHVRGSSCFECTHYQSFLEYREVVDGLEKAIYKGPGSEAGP
Test: COMT inhibition assay (HTRF, production of SAH from SAM)
Type: biochemical
Settings: table does not say MB-COMT or S-COMT
Experimental: The ability of compounds to inhibit the activity of catechol-O-methyltransferase (COMT) was determined by a homogenous time-resolved fluorescent (HTRF) assay (Lina et al, 2012; kit from CisBio, Codolet, France). This assay measures the production of S-adenosyl homocysteine (SAH) from the methyl donor S-adenosyl methionine. Recombinant human membrane bound COMT (MB-COMT; M51A variant) was expressed in HEK 293F cells using 293Fectin (Life Technologies, Gent, Belgium) and membranes prepared. The membranes were re-suspended in buffer (20 mM Tris/HCl pH 7; 10 mM glycerol; 2 mM MgCl2; 10 mM NaCl), aliquoted and stored at −80° C. Recombinant human soluble COMT(S-COMT), Val158 variant and a hexa-His tag on the N-terminus, was purified using Ni-NTA chromatography, the His tag removed and stored in buffer as above.
For the human MB-COMT assay, membranes (62 ng/well) were incubated with SAM (20 μM final, CisBio) and dopamine (1.5 μM final; Sigma H8502, Diegem, Belgium) in the presence or absence of varying concentrations (typically 10 concentrations ranging from 10 ? M to 0.1 nM) of compound for 40 min at 37° C. in 384-well microtiter plates (10 ? l per well final volume). The reaction was terminated by the addition of acylation buffer and the amount of SAH produced determined according to manufacturer's instructions. Specific inhibition as that inhibited by a high concentration of tolcapone and all experiments were validated using a control curve to tolcapone.
The human S-COMT assay was performed as above except that 0.15 ng enzyme/well was incubated with SAM ([…]) and dopamine (100 μM final) for 15 min at 37° C. and SAH production determined.
HTRF readings were performed using a Perkin Elmer Envision and results expressed as concentration of SAH produced using a standard curve. Results were analyzed using non-linear regression to the 4-parameter logistic equation and pIC50 (−log 10 concentration of drug which inhibits enzyme activity/SAH production by 50%) determined.

Row | Compound | Activity range (pIC50)
1 | Cc1ccc(C)c(CN2CCn3cc(O)c(=O)cc3C2)c1 [Example 28, 2-(2,5-dimethylbenzyl)-7-hydroxy-1,2,3,4-tetrahydro-8H-pyrido[1,2-a]pyrazin-8-one] | +++ (three plus signs (+++) is associated with a pIC50 of above about 7)
2 | O=c1cc2n(cc1O)CCN(Cc1cc3ccccc3n1S(=O)(=O)c1ccccc1)C2 [Example 29, 7-hydroxy-2-{[1-(phenylsulfonyl)-1H-indol-2-yl]methyl}-1,2,3,4-tetrahydro-8H-pyrido[1,2-a]pyrazin-8-one] | +++ (three plus signs (+++) is associated with a pIC50 of above about 7)
3 | O=c1cc2n(cc1O)CCN(CCCc1ccccc1)C2 [Example 30, 7-hydroxy-2-(3-phenylpropyl)-1,2,3,4-tetrahydro-8H-pyrido[1,2-a]pyrazin-8-one] | ++ (two plus signs (++) is associated with a pIC50 of from about 6 to 7)
4 | CC(CN1CCn2cc(O)c(=O)cc2C1)c1ccccc1 (stereo not shown) [Example 31, 7-hydroxy-2-(2-phenylpropyl)-1,2,3,4-tetrahydro-8H-pyrido[1,2-a]pyrazin-8-one] | ++ (two plus signs (++) is associated with a pIC50 of from about 6 to 7)
5 | O=c1cc2n(cc1O)CCN(Cc1cc(F)cc(F)c1)C2 [Example 32, 2-(3,5-difluorobenzyl)-7-hydroxy-1,2,3,4-tetrahydro-8H-pyrido[1,2-a]pyrazin-8-one] | ++ (two plus signs (++) is associated with a pIC50 of from about 6 to 7)
6 | Cc1ccccc1CN1CCn2cc(O)c(=O)cc2C1 [Example 33, 7-hydroxy-2-(2-methylbenzyl)-1,2,3,4-tetrahydro-8H-pyrido[1,2-a]pyrazin-8-one] | +++ (three plus signs (+++) is associated with a pIC50 of above about 7)
7 | O=c1cc2n(cc1O)CCN(Cc1cc(-c3ccccc3)[nH]n1)C2 [Example 34, 7-hydroxy-2-[(5-phenyl-1H-pyrazol-3-yl)methyl]-1,2,3,4-tetrahydro-8H-pyrido[1,2-a]pyrazin-8-one] | ++ (two plus signs (++) is associated with a pIC50 of from about 6 to 7)
8 | O=c1cc2n(cc1O)CCN(Cc1cc(Cl)cc3c1OCCC3c1c[nH]cn1)C2 (stereo not shown) [Example 35, 2-{[6-chloro-4-(1H-imidazol-4-yl)-3,4-dihydro-2H-chromen-8-yl]methyl}-7-hydroxy-1,2,3,4-tetrahydro-8H-pyrido[1,2-a]pyrazin-8-one] | ++ (two plus signs (++) is associated with a pIC50 of from about 6 to 7)
9 | O=c1cc2n(cc1O)CCN(Cc1cccc(Oc3ccccc3)c1)C2 [Example 36, 7-hydroxy-2-(3-phenoxybenzyl)-1,2,3,4-tetrahydro-8H-pyrido[1,2-a]pyrazin-8-one] | +++ (three plus signs (+++) is associated with a pIC50 of above about 7)
10 | Cc1cccc(CN2CCn3cc(O)c(=O)cc3C2)c1C [Example 37, 2-(2,3-dimethylbenzyl)-7-hydroxy-1,2,3,4-tetrahydro-8H-pyrido[1,2-a]pyrazin-8-one] | +++ (three plus signs (+++) is associated with a pIC50 of above about 7)
11 | O=c1cc2n(cc1O)CCN(Cc1nc3ccccc3s1)C2 [Example 38, 2-(1,3-benzothiazol-2-ylmethyl)-7-hydroxy-1,2,3,4-tetrahydro-8H-pyrido[1,2-a]pyrazin-8-one] | ++ (two plus signs (++) is associated with a pIC50 of from about 6 to 7)
12 | O=c1cc2n(cc1O)CCN(Cc1ccccc1F)C2 [Example 39, 2-(2-fluorobenzyl)-7-hydroxy-1,2,3,4-tetrahydro-8H-pyrido[1,2-a]pyrazin-8-one] | +++ (three plus signs (+++) is associated with a pIC50 of above about 7)
13 | Cc1nn(C)c(Cl)c1CN1CCn2cc(O)c(=O)cc2C1 [Example 40, 2-[(5-chloro-1,3-dimethyl-1H-pyrazol-4-yl)methyl]-7-hydroxy-1,2,3,4-tetrahydro-8H-pyrido[1,2-a]pyrazin-8-one] | ++ (two plus signs (++) is associated with a pIC50 of from about 6 to 7)
14 | O=c1cc2n(cc1O)CCN(Cc1coc3ccccc3c1=O)C2 [Example 41, 7-hydroxy-2-[(4-oxo-4H-chromen-3-yl)methyl]-1,2,3,4-tetrahydro-8H-pyrido[1,2-a]pyrazin-8-one] | ++ (two plus signs (++) is associated with a pIC50 of from about 6 to 7)
15 | O=c1cc2n(cc1O)CCN(Cc1n[nH]c3ccccc13)C2 [Example 42, 7-hydroxy-2-(1H-indazol-3-ylmethyl)-1,2,3,4-tetrahydro-8H-pyrido[1,2-a]pyrazin-8-one] | ++ (two plus signs (++) is associated with a pIC50 of from about 6 to 7)
16 | O=c1cc2n(cc1O)CCN(Cc1c[nH]nc1-c1cccs1)C2 [Example 43, 7-hydroxy-2-{[3-(thiophen-2-yl)-1H-pyrazol-4-yl]methyl}-1,2,3,4-tetrahydro-8H-pyrido[1,2-a]pyrazin-8-one] | ++ (two plus signs (++) is associated with a pIC50 of from about 6 to 7)
17 | O=c1cc2n(cc1O)CCN(Cc1ccccc1C(F)(F)F)C2 [Example 44, 7-hydroxy-2-[2-(trifluoromethyl)benzyl]-1,2,3,4-tetrahydro-8H-pyrido[1,2-a]pyrazin-8-one] | +++ (three plus signs (+++) is associated with a pIC50 of above about 7)
18 | O=c1cc2n(cc1O)CCN(Cc1c[nH]nc1-c1ccccc1)C2 [Example 45, 7-hydroxy-2-[(3-phenyl-1H-pyrazol-4-yl)methyl]-1,2,3,4-tetrahydro-8H-pyrido[1,2-a]pyrazin-8-one] | ++ (two plus signs (++) is associated with a pIC50 of from about 6 to 7)
19 | COc1cccc(OC)c1CN1CCn2cc(O)c(=O)cc2C1 [Example 46, 2-(2,6-dimethoxybenzyl)-7-hydroxy-1,2,3,4-tetrahydro-8H-pyrido[1,2-a]pyrazin-8-one] | ++ (two plus signs (++) is associated with a pIC50 of from about 6 to 7)
20 | O=c1cc2n(cc1O)CCN(Cc1ccc(Oc3ccccc3)cc1)C2 [Example 47, 7-hydroxy-2-(4-phenoxybenzyl)-1,2,3,4-tetrahydro-8H-pyrido[1,2-a]pyrazin-8-one] | +++ (three plus signs (+++) is associated with a pIC50 of above about 7)
21 | O=c1cc2n(cc1O)CCN(Cc1ccc3c(c1)OCCO3)C2 [Example 48, 2-(2,3-dihydro-1,4-benzodioxin-6-ylmethyl)-7-hydroxy-1,2,3,4-tetrahydro-8H-pyrido[1,2-a]pyrazin-8-one] | ++ (two plus signs (++) is associated with a pIC50 of from about 6 to 7)
22 | CC(Cc1ccc2c(c1)OCO2)CN1CCn2cc(O)c(=O)cc2C1 (stereo not shown) [Example 49, 2-[3-(1,3-benzodioxol-5-yl)-2-methylpropyl]-7-hydroxy-1,2,3,4-tetrahydro-8H-pyrido[1,2-a]pyrazin-8-one] | ++ (two plus signs (++) is associated with a pIC50 of from about 6 to 7)
23 | COc1ccc(CN2CCn3cc(O)c(=O)cc3C2)cc1 [Example 50, 7-hydroxy-2-(4-methoxybenzyl)-1,2,3,4-tetrahydro-8H-pyrido[1,2-a]pyrazin-8-one] | ++ (two plus signs (++) is associated with a pIC50 of from about 6 to 7)
24 | COc1ccccc1CN1CCn2cc(O)c(=O)cc2C1 [Example 51, 7-hydroxy-2-(2-methoxybenzyl)-1,2,3,4-tetrahydro-8H-pyrido[1,2-a]pyrazin-8-one] | ++ (two plus signs (++) is associated with a pIC50 of from about 6 to 7)
25 | O=c1cc2n(cc1O)CCN(Cc1ccc(OCc3ccccc3)cc1)C2 [Example 52, 2-[4-(benzyloxy)benzyl]-7-hydroxy-1,2,3,4-tetrahydro-8H-pyrido[1,2-a]pyrazin-8-one] | +++ (three plus signs (+++) is associated with a pIC50 of above about 7)
26 | O=c1cc2n(cc1O)CCN(Cc1cccc(OCc3ccccc3)c1)C2 [Example 53, 2-[3-(benzyloxy)benzyl]-7-hydroxy-1,2,3,4-tetrahydro-8H-pyrido[1,2-a]pyrazin-8-one] | +++ (three plus signs (+++) is associated with a pIC50 of above about 7)
27 | O=c1cc2n(cc1O)CCN(Cc1ccc3nsnc3c1)C2 [Example 54, 2-(2,1,3-benzothiadiazol-5-ylmethyl)-7-hydroxy-1,2,3,4-tetrahydro-8H-pyrido[1,2-a]pyrazin-8-one] | ++ (two plus signs (++) is associated with a pIC50 of from about 6 to 7)
28 | O=c1cc2n(cc1O)CCN(Cc1ccccc1OCc1ccccc1)C2 [Example 55, 2-[2-(benzyloxy)benzyl]-7-hydroxy-1,2,3,4-tetrahydro-8H-pyrido[1,2-a]pyrazin-8-one] | ++ (two plus signs (++) is associated with a pIC50 of from about 6 to 7)

From patent publication US10934283B2, “COMT inhibiting methods and compositions” (LIEBER INSTITUTE FOR BRAIN DEVELOPMENT, priority 2015, dated 2021)
